In data set [1] the target is T1, erbB4 (Homo sapiens, UniProt Q15303).
T1 construct: Postmortem PFC tissues were gradually thawed and sliced using a McIlwain tissue chopper; from tissue; host or cells: postmortem human prefrontal cortex (Brodmann areas 9, 10 and/or 46), schizophrenic and control subjects
The data set can be described thus: NRG1 stimulation-induced erbB4 tyrosine phosphorylation in postmortem brain tissue (erbB4 IP, phosphotyrosine immunoblot). It counts as cell-based. Particulars: postmortem PFC tissue stimulated 37° C. 30 min; NRG1-GST or GST 200 ng/ml; NMDA 10 μM + 1 μM glycine. The protocol: Postmortem PFC tissues were gradually thawed and sliced using a McIlwain tissue chopper (200 μm×200 μm×3 mm). Tissue slices ([…]) were suspended in ice-cold Krebs-Ringer solution containing 118 mM NaCl, 4.8 mM KCl, 1.3 mM CaCl2, 1.2 mM KH2 PO4, 1.2 mM MgSO4, 25 mM NaHCO3, 10 mM glucose, 100 μM ascorbic acid, […] leupeptin, 0.2 mM PMSF, 25 μg/ml pepstatin A and 0.01 U/ml soybean trypsin inhibitor (pH 7.4). We incubated ˜20 mg of tissue with Krebs-Ringer solution containing either 200 ng/ml GST fusion protein or a mixture of neuregulin-1α-GST and neuregulin-1β-GST (200 ng/ml each), at 37° C. for 30 min. During stimulation, the incubation mixture was aerated with 95% O2, 5% CO2 every 10 min for 1 min. Ligand stimulation was terminated by adding of 1 ml ice-cold Ca^2+-free Krebs-Ringer solution containing 0.5 mM EGTA. Tissue slices were harvested by a brief centrifugation and homogenized in 0.25 ml ice-cold immunoprecipitation buffer (same make-up as homogenization buffer described above). The homogenates was centrifuged at 800 g for 10 min and the supernatant sonicated for 10 s. The proteins were solubilized in 0.5% digitonin, 0.2% sodium cholate and 0.5% NP-40 for 60 min. Lysates were cleared by centrifugation at 50,000 g for 5 min and diluted with 0.75 ml of immunoprecipitation buffer. Protein concentrations were determined using the Bradford method (Bio-Rad). […]
A general note: In western blotting, separated proteins are transferred to a membrane and probed.

Data set [2] in a line: Serum haloperidol concentration in implanted mice. It counts as in vivo. The note with it: CH3, mouse, other: implanted bioabsorbable polymer disc, pooled serum, mice with haloperidol implant. The protocol: (§1) Adult CH3 mice were implanted with a Medisorb bioabsorbable polymer disc (Alkermes Inc.), fabricated with haloperidol (n=7) or polymer vehicle only (n=7). These implants were previously shown to release haloperidol for at least 5 months with a calculated release rate of approximately 2 mg/kg per day. After 12 weeks of treatment, mice were sacrificed and the pooled serum haloperidol concentration was measured. Animal experiments were approved by the Institutional and Animal Care and Use Committee of the University of Pennsylvania.

Data set [3] deals with erbB4. The data set is described as follows: NRG1-induced erbB4 activation in PFC slices of mice after chronic haloperidol treatment. It counts as in vivo, mouse. The note with it: chronic haloperidol implant, 12 weeks. As to the method:
(A) […] slices of PFCs of control and haloperidol treated mice were incubated with or without NRG 1 for 30 min. Tissue lysates were immunoprecipitated for erbB4 and were probed with antiphosphotyrosine or anti-erbB4. (B) Densitometric analysis of erbB4 activation in (A). Graph constructed for the ratios of the intensities for pY-erbB4 over erbB4 for control and haloperidol treated mice. NRG1 induced tyrosine phosphorylation was attenuated in haloperidol treated mice (t(6)=[…]);
as §1
To assess potential confounding effects of demographic or clinical variables, the levels of NRG1 and erbB4 isoforms were assessed, as well as the activation of erbB4, ERK and AKT, for correlations with sex, age, brain pH, postmortem interval and, for the schizophrenia group, exposure to an antipsychotic drug 1 month before death. No significant correlations were found. […]

Entries after “also recorded” stand apart in the source; their conditions may differ.

The values below come from patent publication US20080181882A1, “Neurgulin 1 (NRG1) - ErbB4 signaling as a target for the treatment of schizophrenia” (The University of Pennsylvania, priority 2006, published 2008).

T1 sequence (Q15303 26-1308): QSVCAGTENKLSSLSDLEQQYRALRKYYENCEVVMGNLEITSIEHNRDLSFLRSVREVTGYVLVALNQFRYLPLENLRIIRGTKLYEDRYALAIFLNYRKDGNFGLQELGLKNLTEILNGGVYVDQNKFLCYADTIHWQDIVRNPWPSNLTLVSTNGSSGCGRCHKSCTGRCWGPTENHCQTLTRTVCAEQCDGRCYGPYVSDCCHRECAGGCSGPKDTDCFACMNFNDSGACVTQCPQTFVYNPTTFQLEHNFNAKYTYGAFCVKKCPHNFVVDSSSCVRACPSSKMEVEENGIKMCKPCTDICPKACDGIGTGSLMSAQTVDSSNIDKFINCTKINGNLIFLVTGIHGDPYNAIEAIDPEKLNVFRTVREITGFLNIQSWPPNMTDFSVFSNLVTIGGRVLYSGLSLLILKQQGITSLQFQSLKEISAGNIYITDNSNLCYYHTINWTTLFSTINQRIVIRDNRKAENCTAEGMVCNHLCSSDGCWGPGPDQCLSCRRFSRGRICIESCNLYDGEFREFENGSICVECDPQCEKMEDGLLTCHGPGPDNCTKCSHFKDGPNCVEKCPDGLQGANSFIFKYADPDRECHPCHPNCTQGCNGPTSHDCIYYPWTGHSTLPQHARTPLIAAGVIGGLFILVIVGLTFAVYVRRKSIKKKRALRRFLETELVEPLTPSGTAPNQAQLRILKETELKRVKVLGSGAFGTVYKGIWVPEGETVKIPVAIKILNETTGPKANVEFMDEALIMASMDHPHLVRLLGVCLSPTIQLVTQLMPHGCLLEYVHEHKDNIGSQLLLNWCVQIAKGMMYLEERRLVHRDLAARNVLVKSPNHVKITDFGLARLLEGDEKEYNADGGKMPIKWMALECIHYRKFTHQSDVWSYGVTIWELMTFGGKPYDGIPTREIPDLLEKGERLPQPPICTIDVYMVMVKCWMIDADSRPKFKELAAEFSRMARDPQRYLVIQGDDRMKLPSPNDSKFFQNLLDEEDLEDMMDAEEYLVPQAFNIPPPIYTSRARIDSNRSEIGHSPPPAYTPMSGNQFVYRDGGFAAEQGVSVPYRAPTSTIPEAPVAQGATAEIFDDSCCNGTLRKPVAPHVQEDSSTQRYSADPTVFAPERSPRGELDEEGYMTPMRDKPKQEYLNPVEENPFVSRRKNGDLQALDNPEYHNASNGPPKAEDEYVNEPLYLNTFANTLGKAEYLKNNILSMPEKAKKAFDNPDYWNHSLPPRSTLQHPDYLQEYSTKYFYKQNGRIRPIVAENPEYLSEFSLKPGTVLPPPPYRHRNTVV

Take `CN[C@H](CC(=O)O)C(=O)O` [NMDA, N-methyl-Daspartate]: on erbB4 [1], the “tyrosine phosphorylation of erbB4” value is “did not enhance”.

As for `O=C(CCCN1CCC(O)(c2ccc(Cl)cc2)CC1)c1ccc(F)cc1` [haloperidol], the concentration at 12 weeks in data set [2] was determined as 3.1 ng/mL. Besides, the “NRG1-induced erbB4 activation (pY-erbB4 over erbB4), haloperidol treated vs vehicle mice” value in the data set with erbB4 [3] is recorded as “significantly reduced; also recorded: attenuated”.

B1: BDNF: another trophic factor for a different tyrosine kinase receptor (protein, UniProt P23560 19-247, looked up)
Neurotrophic factor BDNF …: APMKEANIRGQGGLAYPGVRTHGTLESVNGPKAGSRGLTSLADTFEHVIEELLDEDQKVRPNEENNKDADLYTSRVMLSSQVPLEPPLLFLLEEYKNYLDAANMSMRVRRHSDPARRGELSVCDSISEWVTAADKKTAVDMSGGTVTVLEKVPVSKGQLKQYFYETKCNPMGYTKEGCRGIDKRHWNSQCRTTQSYVRALTMDSKKRIGWRFIRIDTSCVCTLTIKRGR
In the case of B1, in the data set with erbB4 [1], the “tyrosine phosphorylation of erbB4” value was “Neither enhanced”.
